Assay results published in patent US4499081A, “Peptide compounds” (Nyegaard & Co A/S, priority 1982, dated 1985).
Square brackets hold non-standard residues; d marks the D form. Peptide text beside a SMILES is read from it. pGlu = O=C1CC[C@@H](C(=O)O)N1

Tests used:
myelopoietic system = test: injection of peptide into mice, effect on hemopoiesis; format: in vivo
granulopoiesis = test: activity as granulopoiesis inhibition factor
Source text: Due to the minute amounts of the natural granulopoiesis factor available, the structure of the natural substance has not been determined. It has never been obtained in crystalline or completely pure form and it is not known whether this could be achieved using material from natural sources only. In contrast, the peptides of the invention can be obtained in crystalline form suitable for pharmaceutical use and in relatively large quantities, free from contaminating peptides and proteins of natural origin.

[1] = injected into mice at a relatively low dose level
[2] = mice, injections at 10^-5 M for six successive days

Which “production of myelopoietic cells after treatment” value (myelopoietic system; after treatment with the peptide, inhibitory effect reversible, normal cell population overshoots temporarily) does the source give for `NCCCC[C@H](NC(=O)[C@H](CS)NC(=O)[C@H](CC(=O)O)NC(=O)[C@H](CCC(=O)O)NC(=O)[C@@H]1CCC(=O)N1)C(=O)O` [Compound (1), L-pyroGlutamyl-L-glutamyl-L-aspartyl-L-cysteinyl-L-lysine] ([pGlu]EDCK-OH) here?
The value was “temporarily abnormally increased”.

What about the “effect on other cell lineages deriving from the pluripotent stem cells” value (myelopoietic system; [1]) of the same compound?
Its value is “not affected”.

What about the “effect on the myelopoietic system (morphologically recognisable cells and committed stem cells)” value (myelopoietic system; [1]) of the same compound?
The value was “selective inhibition of the myelopoietic system”.

And the “effect on the whole hemopoietic system, including production of lymphocytes” value (myelopoietic system; mice, 10^-5 M for three weeks)?
The value was “strong stimulation”.

And the peripheral granulocytes (myelopoietic system; mice, concentration of 10^-7 M in the extracellular fluid, greatest in the mature cells)?
The peripheral granulocytes was “marked decrease”.

And the “pluripotent stem cells and production of erythrocytes” value (myelopoietic system; [2])?
Its value is “reduced”.

What about the “population of committed stem cells” value (myelopoietic system; [2]) of the same compound?
Its value is “strong reduction”.

Which granulopoiesis inhibition activity (granulopoiesis) does the source give for `NCCCC[C@H](NC(=O)[C@H](CS)NC(=O)[C@H](CC(=O)O)NC(=O)[C@H](CC(=O)O)NC(=O)[C@@H]1CCC(=O)N1)C(=O)O` [pyroGlu-Asp-Asp-Cys-LysOH] ([pGlu]DDCK-OH) here?
The granulopoiesis inhibition activity was “inactive”.
